Assay results published in patent US10969380B2, “Simultaneous detection of cannibalism and senescence as prognostic marker for cancer” (Institut Gustave-Roussy, priority 2012, dated 2021).

Legend:
[1] = test system: HCT116 cells; assay: SA-β-Gal senescence assay in HCT116 cells; type: cell-based, human; details: 20 μM Kaempferol, 24 hours
Protocol: FIG. 4. Cellular cannibalism leads to senescence. (A,B) Effects of cellular cannibalism on cell proliferation. After cell sorting, cell proliferation of TP53 or Δ133TP53 knocked down and TP53 knocked out single or cannibal cells were performed during 6 days. (C-H) Effects of cellular cannibalism on senescence induction. Cannibal cells mediated by TP53 knockout or Δ133TP53 knockdown were examined in EdU incorporation assay (C,D), in DNA damage response (E,F) and in SA-β-Gal assay (G,H). (C) Determination of EdU incorporation on cannibal cells induced by Δ133TP53 knockdown, or TP53 knockout. […] The number of EdU positive single or cannibal cells per total number of cells examined (at least 300 per well) was recorded. […] (F) Quantification of DNA damage foci in single and cannibal cells after TP53 or Δ133TP53 inactivation. The percentage of γ-H2AX^+ cells or p53BP1^+ cells were determined by confocal microscopy. […] (I) p21^WAF1 expression during coculture of Tp53^+/+ or TP53^−/− cells, P21^WAF1 expression was determined by immunoblot. […] (K) Quantification of p21^WAF1 expression in single and cannibal cells after TP53 or Δ133TP53 inactivation. The percentage of […]21WAF^+ cells in cannibal cells was determined by confocal microscopy. […] P21^WAF1 expression was determined by immunoblot. […] Quantification of SA-β Gal positive cells were realized as described above (n=3; means±SEM; *P <0.01). […]

[2] = test system: human primary keratinocytes (HEKn); assay: SA-β-Gal senescence assay in human primary keratinocytes; type: cell-based; details: HEKn after fifth passage; 20 μM Kaempferol, 24 hours
Protocol: FIG. 12. Identification of entescence as a non-cell autonomous senescence. (A) Effects of P2Y2 inhibition on SA-β Gal activity of human primary keratinocytes. After the fifth passages, human primary keratinocytes were cultured during 24 hours in presence or in absence of 20 μM of P2Y2 inhibitor Kaempferol. The number of SA-β Gal positive single or cannibal cells per total number of cells examined (at least 300 per well) was recorded and frequencies of SA-β Gal positive were determined. Error bars represent means±SEM (n=3; *p <0.01). (B) Effects of P2Y2 inhibition on SA-β Gal activity detected after g-irradiation or mithoxantron treatment. […] Then as described above frequencies of SA-β Gal positive were determined (means±SEM; n=3; *p <0.01). […] As previously described, the number of SA-β Gal positive single or cannibal cells per total number of cells examined (at least 300 per well) was recorded (means±SEM; n=3; *p <0.01). […] P21WAF1 expression was also analyzed using antibody against p21^WAF1 (green). […] (F-H) Effects of P2Y2 depletion on DNA damage foci formation, p21^WAF1 expression and SA-β Gal activity detected after Δ133p53. After P2Y2 depletion, the percentage of Δ133p53 depleted cells showing positivity for γ-I-H2AX^+ or p21^WAF1 expression were determined by confocal microscopy (G,H) and analyzed for p Gal activity (Means±SEM; n=3; *P <0.01). […]

O=c1c(O)c(-c2ccc(O)cc2)oc2cc(O)cc(O)c12 [kaempferol]
senescence (frequency of senescent, SA-β-Gal-positive cannibal cells) after treatment with IR or with MTX [1]: strongly reduced senescence
senescence (frequency of senescent, SA-β-Gal-positive cannibal cells) during replicative stress [2]: strongly reduced senescence
